Test results taken from US20120264928A1, “THERAPEUTIC PHARMACEUTICAL AGENT FOR DISEASES ASSOCIATED WITH DECREASE IN FUNCTION OF GNE PROTEIN, FOOD COMPOSITION, AND FOOD ADDITIVE” (JAPAN HEALTH SCIENCES FOUNDATION, priority 2009, published 2012).

Key:
Assay type in all cases: in vivo
DMRV model mice [1] = assay: Survival rate of treated DMRV model mice; conditions: vs placebo group
Procedure: DMRV model mice were GNE^(−/−)hGNED176V-Tg described in Japanese Unexamined Patent Application Publication No. 2007-312641. Healthy litters having no GNE gene mutation were used as controls. The mice in the present example freely take water and feed and ingest 14 mg/kg body weight/day of N-acetylneuraminic acid compound on average.
(§1) 20 mg/kg body weight/day of ManNAc (N=6), NeuAc (N=5), or sialyllactose (N=7) dissolved in drinking water was administered to the DMRV model mice between 11- to 15-week old and 56- to 58-week old for 43 to 45 weeks. 40 mg (N=5) or 400 mg/kg body weight/day (N=4) of Ac4ManNAc dissolved in drinking water was administered to the DMRV model mice of the same ages for 43 to 47 weeks. Drinking water free of the pharmaceutical agents was supplied to mice in a placebo group.
(§2) During the administration of the pharmaceutical agent, the measurement of the body weight, the determination of the survival rate, blood collection (0, 25, and 49 days after the start of administration, and thereafter at intervals of 28 days), and a hanging test (0 and 49 days after the start of administration, and thereafter at intervals of 56 days) were performed at regular intervals. Survivors after the administration (ManNAc-treated group: N=5, NeuAc-treated group: N=5, sialyllactose group: N=6) were subjected to a treadmill test. A muscle tissue was then excised and was subjected to a muscle contraction test, the measurement of the amount of NeuAc, and pathological observation.

DMRV model mice [2] = assay: Treadmill test, endurance test; conditions: vs placebo group
Procedure: as §1, §2
(§3) In order to familiarize a mouse with the apparatus, training was started one week prior to testing. In this period, the mouse was made to run on a slope of 7 degrees at a velocity in the range of 5 to 15 m/min for 30 minutes every day for 7 days. As a motor ability test, the velocity was increased by 10 m/min per minute from the initial velocity of 20 m/min. The accumulated running distance up to the point where the mouse could not run anymore was measured. As an endurance test, a mouse was made to run on a slope of 7 degrees at a velocity of 20 m/min for 60 minutes. The mouse was then made to run for another 3 minutes, during which the times of the electrical stimulation given to the mouse by a stimulation grid disposed at the end of the running lane were measured.

DMRV model mice [3] = assay: Treadmill test, motor ability test; conditions: vs placebo group
Procedure: as §1, §2, §3

DMRV model mice [4] = assay: Pathological observation of muscle tissue
Procedure: as §1, §2
The gastrocnemius muscle used in the muscle contraction test was frozen in isopentane cooled by liquid nitrogen, and a frozen section having a thickness of 6 μm was prepared with a cryostat. The section was placed on a slide glass. Hematoxylin-eosin (H-E) staining, acid phosphatase activity staining (see Malicdan et al., Method. Enzymol., 453, 379-396, 2009), or Gomori trichrome staining (see Malicdan et al., Method. Enzymol., 453, 379-396, 2009) were performed on adjacent sections. These sections were observed under an optical microscope. A frozen section having a thickness of 10 μm prepared in the same manner as described above was fixed with 4% paraformaldehyde, was stained with congo red, and was observed under a fluorescence microscope.
A frozen section having a thickness of 6 μm prepared in the same manner as described above was fixed with acetone and was blocked with a blocking solution (PBS containing 5% goat normal sera or 2% casein). The section was incubated with an anti-autophagy marker protein LC3 rabbit polyclonal antibody (NB100-2220, Novus Biologicals, 100 times dilution), an anti-β-amyloid rabbit polyclonal antibody (Aβ1-40, AB5074P, Chemicon, 100 times dilution), an anti-β-amyloid rabbit polyclonal antibody (Aβ1-42, AB5078P, Chemicon, 100 times dilution), an anti-phosphorylated tau mouse monoclonal antibody (90206, Innogenetics, 100 times dilution), an anti-amyloid mouse monoclonal antibody (6E10, Covance, 400 times dilution), an anti-p62 protein rabbit polyclonal antibody (PW9860, Biomol, 500 times dilution), or an anti-lysosome-associated membrane protein 2 (Lamp 2) rabbit polyclonal antibody (ABL-93, obtained from Developmental Studies Hybridoma Bank at the University of Iowa, 100 times dilution) at room temperature for one hour. If necessary, Alexa Fluor 488 or 568 labeled anti-rabbit/mouse IgG(H+L) (Molecular Probes) was used as a secondary antibody. Immunostained preparations of these sections were observed under a fluorescence microscope. The congo red staining and the LC3 labeling were performed on adjacent sections.
It is known that rimmed vacuoles found in muscle tissues of a patient suffering from myopathy are positive for acid phosphatase. […] Tau protein is phosphorylated with amyloid β-protein. In myopathy caused by a mutation of the GNE gene, it is known that lysosomal vesicles that contain localized Lamp 2 protein are accumulated. It is also known that p62 protein recognizes polyubiquitin protein and directly binds to LC3 to induce autophagy in a portion that contains accumulated polyubiquitinated protein. In a muscle tissue affected by myopathy, p62 protein is colocalized with amyloid.

DMRV model mice [5] = assay: Hanging test; conditions: 20 mg/kg body weight/day in drinking water; vs placebo group
Procedure: as §1, §2
A wire net having a 6-mm lattice pattern made of wires having a diameter of approximately 0.5 mm was placed on a tube having a height of 50 cm. A mouse was made to hang on the wire net, and the time elapsed before the mouse fell down was measured. The time was measured three times for each mouse.

DMRV model mice [6] = assay: Number of formed rimmed vacuoles and amyloid-positive cells; conditions: 20 mg/kg body weight/day in drinking water; vs placebo group
Procedure: as §1, §2
In six H-E stained pathological sections having a thickness of 10 μm prepared at intervals of 100 μm, the number of rimmed vacuoles observed over the cross section of the muscular tissue was counted. In order to count the number of amyloid-positive protein deposits, the number of cells having deposits labeled with an anti-amyloid antibody (6E10) observed over the cross section of the muscular tissue was counted in six sections having a thickness of 10 μm prepared at intervals of 100 μm.

[7] = 20 mg/kg body weight/day in drinking water, 43 to 45 weeks
[8] = 20 mg/kg body weight/day in drinking water
[9] = 20 mg/kg body weight/day in drinking water, vs placebo group

SMILES	survival rate (DMRV model mice [1]; [7])	hanging time (DMRV model mice [5])	number of amyloid positive cells (DMRV model mice [6])	number of rimmed vacuoles (DMRV model mice [6])	times of electrical stimulation for 3 minutes (DMRV model mice [2]; [8])	accumulated running distance (DMRV model mice [3]; [8])	acid phosphatase activity staining (DMRV model mice [4]; [8])	congo red staining (amyloid) (DMRV model mice [4]; [8])	labeling with the anti-phosphorylated tau antibody (DMRV model mice [4]; [8])	rimmed vacuoles and muscle cell atrophy (H-E staining) (DMRV model mice [4]; [8])	labeling with the anti-amyloid antibodies (LC3, Aβ1-40, and Aβ1-42) (DMRV model mice [4]; [9])	also measured
CC(=O)N[C@@H]1C(OC(C)=O)O[C@H](COC(C)=O)[C@@H](OC(C)=O)[C@@H]1OC(C)=O (some centres unmarked) [Ac4ManNAc, Tetra-O-acetyl-N-acetylmannosamine]	–	–	–	–	–	–	–	–	–	–	–	survival rate (DMRV model mice [1]; 40 or 400 mg/kg body weight/day in drinking water, 43 to 47 weeks): higher; times of electrical stimulation for 3 minutes (DMRV model mice [2]; 40 mg/kg): significantly lower; times of electrical stimulation for 3 minutes (DMRV model mice [2]; 400 mg/kg): significantly lower; accumulated running distance (DMRV model mice [3]; 400 mg/kg): significantly higher; Aβ1-42 labeling (DMRV model mice [4]; 40 mg/kg): negative; Lamp 2 staining (DMRV model mice [4]; 40 mg/kg): very slightly stained; acid phosphatase activity staining (DMRV model mice [4]; 40 mg/kg): dispersed sites that were positive; p62 protein labeling (DMRV model mice [4]; 40 mg/kg): negative; frequencies of rimmed vacuoles and muscular atrophy (DMRV model mice [4]; 40 mg/kg, vs placebo group): much lower; Aβ1-42 labeling (DMRV model mice [4]; 400 mg/kg): negative; Lamp 2 staining (DMRV model mice [4]; 400 mg/kg): negative; acid phosphatase activity staining (DMRV model mice [4]; 400 mg/kg): negative; p62 protein labeling (DMRV model mice [4]; 400 mg/kg): negative; rimmed vacuoles and muscle cell atrophy (DMRV model mice [4]; 400 mg/kg): no rimmed vacuole or muscle cell atrophy
CC(=O)N[C@@H]1C(O)O[C@H](CO)[C@@H](O)[C@@H]1O (some centres unmarked) [ManNAc, N-acetylmannosamine, reference compound]	significantly higher	longer	significantly lower	significantly lower	significantly lower	significantly higher	negative	only the placebo group was fluorescently labeled	Only the placebo group was also labeled	no rimmed vacuole or muscle cell atrophy	markedly reduced	–
CC(=O)N[C@H]1[C@H]([C@H](O)[C@H](O)CO)OC(O)(C(=O)O)C[C@@H]1O (some centres unmarked) [NeuAc, N-acetylneuraminic acid]	significantly higher	longer	significantly lower	significantly lower	significantly lower	significantly higher	negative	only the placebo group was fluorescently labeled	Only the placebo group was also labeled	no rimmed vacuole or muscle cell atrophy	markedly reduced	–
CC(=O)N[C@H]1[C@H]([C@H](O)[C@H](O)CO)O[C@@](O[C@H]2[C@@H](O)[C@@H](CO)O[C@@H](O[C@H]3[C@H](O)[C@@H](O)C(O)O[C@@H]3CO)[C@@H]2O)(C(=O)O)C[C@@H]1O (some centres unmarked) [sialyllactose, NeuAcα2-3Galβ1-4Glc]	significantly higher	longer	significantly lower	significantly lower	significantly lower	significantly higher	negative	only the placebo group was fluorescently labeled	Only the placebo group was also labeled	no rimmed vacuole or muscle cell atrophy	markedly reduced	–
